US9839629B2, “Inhibitors of the renal outer medullary potassium channel” (Merck Sharp & Dohme Corp., priority 2013, dated 2017)

Each molecule was assayed against T1, ROMK (Kir1.1) channel (Homo sapiens, UniProt P48048) (assay: Thallium Flux Assay).
T1 sequence (P48048 1-391): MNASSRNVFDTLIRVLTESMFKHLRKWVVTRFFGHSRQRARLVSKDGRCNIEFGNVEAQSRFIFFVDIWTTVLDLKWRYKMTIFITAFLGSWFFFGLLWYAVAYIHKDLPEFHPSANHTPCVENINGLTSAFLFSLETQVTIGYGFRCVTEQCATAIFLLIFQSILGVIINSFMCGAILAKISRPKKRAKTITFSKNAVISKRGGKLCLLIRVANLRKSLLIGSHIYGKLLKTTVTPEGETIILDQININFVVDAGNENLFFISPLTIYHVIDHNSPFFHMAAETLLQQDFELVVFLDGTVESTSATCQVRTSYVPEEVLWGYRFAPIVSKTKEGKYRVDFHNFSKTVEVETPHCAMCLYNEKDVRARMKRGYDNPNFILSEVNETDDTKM
Assay type: cell-based
Protocol: A Thallium Flux Assay was performed on each of the final product compounds in the Examples. When the final product of an Example was an HCl salt, the salt was run in the Assay. This assay has been described previously; see, e.g., PCT Published Application WO 2013/062900.
An IC50 of 114 nM was found for COCO[C@H]1CN(C2=C(C)C(=O)OC2)CCC12CCN(C[C@H](O)c1ccc3c(c1C)COC3=O)CC2 [Example 95, 5-{(1R)-1-hydroxy-2-[(7R)-7-(methoxymethoxy)-9-(4-methyl-5-oxo-2,5-dihydrofuran-3-yl)-3,9-diazaspiro[5.5]undec-3-yl]ethyl}-4-methyl-2-benzofuran-1(3H)-one] in this work.
An IC50 of 220 nM was found for COc1cc(C#N)ncc1[C@@H](O)CN1CCC2(CC1)CCN(C1=CC(=O)OC1)CC2 [Example 9, (R)-5-(1-hydroxy-2-(9-(5-oxo-2,5-dihydrofuran-3-yl)-3,9-diazaspiro[5.5]undecan-3-yl)ethyl)-4-methoxypicolinonitrile] in this work.
An IC50 of 110 nM was found for CCc1c(N2CCC3(CCN(C[C@H](O)c4ccc5c(c4C)COC5=O)CC3)CC2)c(=O)c1=O [Example 79, (R)-3-ethyl-4-(9-(2-hydroxy-2-(4-methyl-1-oxo-1,3-dihydroisobenzofuran-5-yl)ethyl)-3,9-diazaspiro[5.5]undecan-3-yl)cyclobut-3-ene-1,2-dione] in this work.
An IC50 of 16 nM was found for CC1=C(N2CCC3(CCN(C[C@H](O)c4ccc(-n5cnnn5)nc4C)CC3)CC2)COC1=O [Example 45, (R)-4-(9-(2-hydroxy-2-(2-methyl-6-(1H-tetrazol-1-yl)pyridin-3-yl)ethyl)-3,9-diazaspiro[5.5]undecan-3-yl)-3-methylfuran-2(5H)-one] in this work.
An IC50 of 74 nM was found for O=C1C=C(N2CCC3(CCN(C[C@@H](O)c4ccc(-n5cnnn5)nc4)CC3)CC2)CO1 [Example 19, (S)-4-(9-(2-(6-(1H-tetrazol-1-yl)pyridin-3-yl)-2-hydroxyethyl)-3,9-diazaspiro[5.5]undecan-3-yl)furan-2(5H)-one] in this work.
An IC50 of 639 nM was found for CC1=C(N2CCC3(CCN(C[C@H](O)c4ccc5c(c4C)COC5=O)CC3)[C@@H](O)C2)COC1=O [Example 94, 5-{(1R)-1-hydroxy-2-[(7R)-7-hydroxy-9-(4-methyl-5-oxo-2,5-dihydrofuran-3-yl)-3,9-diazaspiro[5.5]undec-3-yl]ethyl}-4-methyl-2-benzofuran-1(3H)-one] in this work.
An IC50 of 198 nM was found for CO[C@@H](CN1CCC2(CC1)CCN(C1=CC(=O)OC1)CC2)c1ccc2c(c1C)COC2=O [Example 91, (R)-5-(1-methoxy-2-(9-(5-oxo-2,5-dihydrofuran-3-yl)-3,9-diazaspiro[5.5]undecan-3-yl)ethyl)-4-methylisobenzofuran-1(3H)-one] in this work.
An IC50 of 93 nM was found for Cc1c(CCN2CCC3(CC2)CCN(c2c(C)c(=O)c2=O)CC3)ccc2c1COC2=O [Example 3, 3-methyl-4-(9-(2-(4-methyl-1-oxo-1,3-dihydroisobenzofuran-5-yl)ethyl)-3,9-diazaspiro[5.5]undecan-3-yl)cyclobut-3-ene-1,2-dione] in this work.
An IC50 of 275 nM was found for CC1=C(N2CCC3(CCN(C[C@H](O)c4ccc5c(c4C)COC5=O)CC3)[C@@H](F)C2)COC1=O [Example 34, 5-((R)-2-((R)-7-fluoro-9-(4-methyl-5-oxo-2,5-dihydrofuran-3-yl)-3,9-diazaspiro[5.5]undecan-3-yl)-1-hydroxyethyl)-4-methylisobenzofuran-1(3H)-one] in this work.
An IC50 of 41 nM was found for O=C1C=C(N2CCC3(CCN(C[C@H](O)c4ccc(-n5cnnn5)nn4)CC3)CC2)CO1 [Example 16, (S)-4-(9-(2-(6-(1H-tetrazol-1-yl)pyridazin-3-yl)-2-hydroxyethyl)-3,9-diazaspiro[5.5]undecan-3-yl)furan-2(5H)-one] in this work.
An IC50 of 180 nM was found for C[C@H]1Cc2cc([C@@H](O)CN3CCC4(CC3)CCN(C3=CC(=O)OC3)CC4)ccc2C(=O)O1 [Example 11, (S)-6-((R)-1-hydroxy-2-(9-(5-oxo-2,5-dihydrofuran-3-yl)-3,9-diazaspiro[5.5]undecan-3-yl)ethyl)-3-methylisochroman-1-one] in this work.
An IC50 of 91 nM was found for O=C1C=C(N2CCC3(CCN(C[C@@H](O)c4ccc(-n5cnnn5)nn4)CC3)CC2)CO1 [Example 17, (R)-4-(9-(2-(6-(1H-tetrazol-1-yl)pyridazin-3-yl)-2-hydroxyethyl)-3,9-diazaspiro[5.5]undecan-3-yl)furan-2(5H)-one] in this work.
An IC50 of 132 nM was found for COCO[C@@H]1CN(C2=C(C)C(=O)OC2)CCC12CCN(C[C@H](O)c1ccc3c(c1C)COC3=O)CC2 [Example 96, 5-{(1R)-1-hydroxy-2-[(7S)-7-(methoxymethoxy)-9-(4-methyl-5-oxo-2,5-dihydrofuran-3-yl)-3,9-diazaspiro[5.5]undec-3-yl]ethyl}-4-methyl-2-benzofuran-1(3H)-one] in this work.
An IC50 of 31 nM was found for Cc1c(CCN2CCC3(CC2)CCN(C2=CC(=O)OC2)CC3)ccc2c1COC2=O [Example 2, 4-methyl-5-(2-(9-(5-oxo-2,5-dihydrofuran-3-yl)-3,9-diazaspiro[5.5]undecan-3-yl)ethyl)isobenzofuran-1(3H)-one] in this work.
An IC50 of 115 nM was found for CC1=C(N2CCC3(CCN(CC(O)c4ccc(Br)cc4)CC3)CC2)COC1=O (centres unmarked) [Example 36, 4-(9-(2-(4-bromophenyl)-2-hydroxyethyl)-3,9-diazaspiro[5.5]undecan-3-yl)-3-methylfuran-2(5H)-one] in this work.
An IC50 of 109 nM was found for CC1=C(N2CCC3(CCN(C[C@H](O)c4ccc5c(c4C)COC5=O)CC3)CC2)CCC1=O [Example 76, (R)-5-(1-hydroxy-2-(9-(2-methyl-3-oxocyclopent-1-en-1-yl)-3,9-diazaspiro[5.5]undecan-3-yl)ethyl)-4-methylisobenzofuran-1(3H)-one] in this work.
An IC50 of 336 nM was found for Cc1c(N2CCC3(CCN(C[C@@H](O)c4cnc(-n5cnnn5)cn4)CC3)CC2)c(=O)c1=O [Example 86, (R)-3-(9-(2-(5-(1H-tetrazol-1-yl)pyrazin-2-yl)-2-hydroxyethyl)-3,9-diazaspiro[5.5]undecan-3-yl)-4-methylcyclobut-3-ene-1,2-dione] in this work.
An IC50 of 28 nM was found for O=C1C=C(N2CCC3(CCN(C[C@@H](O)c4ccc(-n5cnnn5)cc4F)CC3)CC2)CO1 [Example 23, (S)-4-(9-(2-(2-fluoro-4-(1H-tetrazol-1-yl)phenyl)-2-hydroxyethyl)-3,9-diazaspiro[5.5]undecan-3-yl)furan-2(5H)-one] in this work.
An IC50 of 317 nM was found for Cc1c(N2CCC3(CCN(C[C@H](O)c4ccc(-n5cnnn5)nn4)CC3)CC2)c(=O)c1=O [Example 83, (S)-3-(9-(2-(6-(1H-tetrazol-1-yl)pyridazin-3-yl)-2-hydroxyethyl)-3,9-diazaspiro[5.5]undecan-3-yl)-4-methylcyclobut-3-ene-1,2-dione] in this work.
An IC50 of 14 nM was found for Cc1nc(-n2cnnn2)ccc1[C@@H](O)CN1CCC2(CC1)CCN(C1=CC(=O)OC1)CC2 [Example 13, (R)-4-(9-(2-hydroxy-2-(2-methyl-6-(1H-tetrazol-1-yl)pyridin-3-yl)ethyl)-3,9-diazaspiro[5.5]undecan-3-yl)furan-2(5H)-one] in this work.
An IC50 of 11 nM was found for Cc1nc(-n2cnnn2)ccc1[C@@H](O)CN1CCC2(CC1)CCN(C1=C(F)C(=O)OC1)CC2 [Example 39, (R)-3-fluoro-4-(9-(2-hydroxy-2-(2-methyl-6-(1H-tetrazol-1-yl)pyridin-3-yl)ethyl)-3,9-diazaspiro[5.5]undecan-3-yl)furan-2(5H)-one] in this work.
An IC50 of 179 nM was found for Cc1cc(-n2cnnn2)ccc1[C@@H](O)CN1CCC2(CC1)CCN(C1=CC(=O)CC1)CC2 [Example 73, (R)-3-(9-(2-hydroxy-2-(2-methyl-4-(1H-tetrazol-1-yl)phenyl)ethyl)-3,9-diazaspiro[5.5]undecan-3-yl)cyclopent-2-enone] in this work.
An IC50 of 32 nM was found for CC1=C(N2CCC3(CCN(C[C@@H](O)c4cccc(-n5cnnn5)c4)CC3)CC2)COC1=O [Example 60, (S)-4-(9-(2-(3-(1H-tetrazol-1-yl)phenyl)-2-hydroxyethyl)-3,9-diazaspiro[5.5]undecan-3-yl)-3-methylfuran-2(5H)-one] in this work.
An IC50 of 42 nM was found for CO[C@H]1CN(C2=C(C)C(=O)OC2)CCC12CCN(C[C@H](O)c1ccc3c(c1C)COC3=O)CC2 [Example 97, 5-{(1R)-1-hydroxy-2-[(7R)-7-methoxy-9-(4-methyl-5-oxo-2,5-dihydrofuran-3-yl)-3,9-diazaspiro[5.5]undec-3-yl]ethyl}-4-methyl-2-benzofuran-1(3H)-one] in this work.
An IC50 of 433 nM was found for Cc1c([C@@H](O)CN2CCC3(CC2)CCN(C2=CC(=O)OC2)C(=O)C3)ccc2c1COC2=O [Example 27, (R)-9-(2-hydroxy-2-(4-methyl-1-oxo-1,3-dihydroisobenzofuran-5-yl)ethyl)-3-(5-oxo-2,5-dihydrofuran-3-yl)-3,9-diazaspiro[5.5]undecan-2-one] in this work.
An IC50 of 22 nM was found for CC1=C(N2CCC3(CCN(C[C@H](O)c4cccc(-n5cnnn5)c4)CC3)CC2)COC1=O [Example 59, (R)-4-(9-(2-(3-(1H-tetrazol-1-yl)phenyl)-2-hydroxyethyl)-3,9-diazaspiro[5.5]undecan-3-yl)-3-methylfuran-2(5H)-one] in this work.
An IC50 of 110 nM was found for CC1=C(N2CCC3(CCN(C[C@@H](O)c4cncc(-n5cnnn5)n4)CC3)CC2)COC1=O [Example 66, (R)-4-(9-(2-(6-(1H-tetrazol-1-yl)pyrazin-2-yl)-2-hydroxyethyl)-3,9-diazaspiro[5.5]undecan-3-yl)-3-methylfuran-2(5H)-one] in this work.
An IC50 of 7 nM was found for Cc1c([C@@H](O)CN2CCC3(CC2)CCN(C2=C(F)C(=O)OC2)CC3)ccc2c1COC2=O [Example 38, (R)-5-(2-(9-(4-fluoro-5-oxo-2,5-dihydrofuran-3-yl)-3,9-diazaspiro[5.5]undecan-3-yl)-1-hydroxyethyl)-4-methylisobenzofuran-1(3H)-one] in this work.
An IC50 of 196 nM was found for CC1=C(N2CCC3(CCN(C[C@H](O)c4cncc(-n5cnnn5)c4)CC3)CC2)COC1=O [Example 63, (R)-4-(9-(2-(5-(1H-tetrazol-1-yl)pyridin-3-yl)-2-hydroxyethyl)-3,9-diazaspiro[5.5]undecan-3-yl)-3-methylfuran-2(5H)-one] in this work.
